Results from article PMC7268155 (F1000Research, 2020).
Where a name gives a salt, the structure may show the parent alone.

Tests used:
in vitro = details: human, Viability at 10µM (MTT viability)
[1] = tested on: Ebola virus replication (trVLP); assay: microbe, parasite or virus in culture; type: cell-based, Ebola Zaire; details: for inhibition at 10 µM / IC50: Zaire ebolavirus, HEK-293T; for inhibition at 10 µM: read-out: Inhibition at 10µM (percent inhibition of trVLP replication); for IC50: read-out: IC50 to inhibit Ebola virus (trVLP) replication
HEK-293T cells = details: for Viability at 10µM (MTT viability): human
Leishmania spp. = details: cited from earlier work
Ebola virus = details: cited from earlier work
Plasmodium = details: cited from earlier work
Ebola virus disease = details: mouse, in vivo; cited from earlier work

SMILES | viability at 10 µM (in vitro) [%] | inhibition at 10 µM [1] [%] | inhibitory activity in trVLP assay (in words) [1] | also measured
N#C/C=C/c1ccc2ccccc2n1 [2CNQ] | 88 ± 3.63 | 3.07 ± 8.34 | – | –
O=C(O)/C=C/c1ccc2ccccc2n1 [2COOHQ] | 88.5 ± 1.54 | 30.6 ± 6.15 | strongly reduced the antiviral inhibition | toxicity / cell viability (in words) (HEK-293T cells): good cell viability
NC/C=C/c1ccc2ccccc2n1 [2NH2Q] | 81 | 89 | having inhibitory activity | Viability at 10µM (MTT viability) (HEK-293T cells): 81.10± 2.09%; Inhibition at 10µM (percent inhibition of trVLP replication) [1]: 89.74± 6.53%; IC50 [1]: 4.66 µM
OC/C=C/c1ccc2ccccc2n1 [2OHQ] | 31 | 89 | having inhibitory activity | Viability at 10µM (MTT viability) (HEK-293T cells): 31.15± 1.27%; activity against Leishmania (Leishmania spp.): in vitro and in vivo activities; Inhibition at 10µM (percent inhibition of trVLP replication) [1]: 89.69± 4.09%
CCCc1ccc2ccccc2n1 [2PQSel] | 97.6 ± 2.06 | 10.8 ± 32.4 | – | activity against Leishmania (Leishmania spp.): in vitro and in vivo activities; antileishmanial activity (Leishmania spp.): antileishmanial activity
CCCCCc1ccc2ccccc2n1 [2PentQ] | – | – | – | Viability at 10µM (MTT viability) (HEK-293T cells): 103.48± 0.99%; Inhibition at 10µM (percent inhibition of trVLP replication) [1]: -6.39± 9.15%
OCCCCCCCCCCCCCCCCc1ccc2ccccc2n1 [2Q16OH] | 74 ± 0.75 | -124 ± 30.6 | – | –
OC(Cc1ccc2ccccc2n1)c1ccccc1 (centres unmarked) [2QPOH] | 88.3 ± 3.26 | -114 ± 92.5 | – | –
C(=C\c1ccc2ccccc2n1)/c1ccc2ccccc2n1 [2QQ] | 57.31 ± 0.29 | 74.3 ± 13.4 | having inhibitory activity | –
C#CC(O)CCCCCCCCCCCCC#Cc1ccc2ccccc2n1 (centres unmarked) [2Qi15] | 109.5 ± 0.25 | 93.3 ± 4.94 | having inhibitory activity | –
COc1ccc(/C=C/c2ccc3ccc(C(O)c4cccc(C#N)c4)c(OC)c3n2)cc1OC (centres unmarked) [AS65] | 77.51 ± 0.4 | -10.2 ± 65.4 | – | –
CCN(CC)Cc1cc(Nc2ccnc3cc(Cl)ccc23)ccc1O [Amodiaquine, amodiaquine dihydrochloride dihydrate, reference compound] | 87.7 ± 1 | 97.7 ± 10.6 | significant reductions in luciferase activity | inhibitory effects in pseudo-type entry assay (Ebola virus): inhibitory effects; toxicity / cell viability (in words) (HEK-293T cells): without significant toxicity; antiplasmodial activity (Plasmodium): antiplasmodial activity; IC50 [1]: 1.45 µM
CCCCCc1ccc2ccccc2n1 [BS460] | 107.5 ± 0.59 | – | – | antiplasmodial activity (Plasmodium): antiplasmodial activity; Inhibition at 10µM (percent inhibition of trVLP replication) [1]: 4.04± 44.15%
CCN(CC)CCCC(C)Nc1ccnc2cc(Cl)ccc12 (centres unmarked) [Chloroquine, Chloroquine diphosphate, reference compound] | 106 ± 1.24 | 92.2 ± 6.23 | significant reductions in luciferase activity | protection against Ebola virus disease (Ebola virus disease): protective; antiplasmodial activity (Plasmodium): antiplasmodial activity; IC50 [1]: 3.95 µM
Cc1ccc2ccc(Br)c(O)c2n1 [DD1] | 59.69 ± 0.03 | 90.5 ± 8.32 | having inhibitory activity | –
Cc1ccc2ccc(C(=O)NCc3ccc(F)cc3)c(O)c2n1 [DD2] | 77 ± 4.78 | 80.8 ± 1.38 | having inhibitory activity | –
COc1cc(Cc2c(C)nc3ccccc3c2C(=O)O)c(Cl)c2c(C)ccnc12 [DD3] | 105 ± 2.54 | -156 ± 97.3 | – | –
COc1ccc(Cl)c2c(C)ccnc12 [DD4] | 90.1 ± 1.64 | 49.7 ± 1.17 | – | –
Cc1ccnc2c(O)ccc(Cl)c12 [DD5] | 51.4 ± 1.31 | -66.5 ± 17.8 | – | –

SMILES | viability at 10 µM (in vitro) [%] | inhibition at 10 µM [1] [%] | inhibitory activity in trVLP assay (in words) [1] | also measured
O=C(O)c1ccc2ccc(/C=C/c3cccnc3)nc2c1O [DD6] | 96.7 ± 2.01 | -8.49 ± 18.6 | – | –
Cc1ccc2c(C=O)cc(C=O)c(O)c2n1 [DD7] | 90.3 ± 1.64 | -31.6 ± 80.9 | – | –
CCn1cc(C(=O)O)c(=O)c2ccc(/C=C/c3ccc(O)c(O)c3)nc21 [DD8] | 91.54 ± 0.41 | -74 ± 101 | – | –
CCCCOC(=O)c1ccc2ccc(/C=C/c3cc(OC)c(O)c([N+](=O)[O-])c3)nc2c1O [FS48] | 81.5 ± 0.97 | -8.41 ± 60.4 | – | –
CC(=O)Nc1ccc(/C=C/c2ccc3ccc(C(=O)O)c(O)c3n2)cc1 [FZ49] | 72.7 ± 1.22 | 21.8 ± 28.4 | – | –
O=C(O)c1ccc2ccc(/C=C/c3ccc([N+](=O)[O-])cc3)nc2c1O [FZ142] | 102 ± 1.39 | 63.1 ± 2.64 | – | –
Oc1cccc2ccc(/C=C/c3ccc4cccc(O)c4n3)nc12 [KHD288] | 62.7 ± 0.72 | -8.41 ± 60.4 | – | –
N#Cc1ccc2ccc(/C=C/c3ccc(O)c(O)c3)nc2c1O [KHD291] | 71.17 ± 0.12 | -68.1 ± 58.1 | – | –
O=C(c1ccc([N+](=O)[O-])cc1)c1ccc2ccc(/C=C/c3ccc(O)c(O)c3)nc2c1O [MBN87] | 70.5 ± 0.78 | -17.9 ± 51.8 | – | –
O=C(c1ccc(F)c(F)c1)c1ccc2ccc(/C=C/c3ccc(O)c(O)c3)nc2c1O [MBN91] | 43.5 ± 0.73 | 81.8 ± 8.8 | having inhibitory activity | –
CCCCCCCCC(=O)c1ccc2ccc(/C=C/c3ccc(O)c(O)c3)nc2c1O [MBN111] | 42.5 ± 4.97 | -48.9 ± 87.8 | – | –
Cc1ccc2ccc(C(=O)c3ccc([N+](=O)[O-])cc3)c(O)c2n1 [MBN115] | 77.1 ± 0.93 | – | – | –
O=C(c1ccccn1)c1ccc2ccc(/C=C/c3ccc(O)c(O)c3)nc2c1O [MBN132] | 105 ± 1.39 | -10.4 ± 57.7 | – | –
Cc1ccc(C(=O)c2ccc3ccc(/C=C/c4ccc(O)c(O)c4)nc3c2O)cc1[N+](=O)[O-] [MBN140] | 67.6 ± 0.73 | -68.1 ± 58.1 | – | –
O=C(NCc1ccc(O)c(O)c1)c1ccc2cccc(C(=O)O)c2n1 [MD20] | 108.3 ± 0.56 | -124 ± 93.4 | – | –
O=[N+]([O-])c1cccc(-c2cc(Br)c(O)c3nc(/C=C/c4ccc(O)c(O)c4)ccc23)c1 [MD823] | 58.9 ± 1.59 | 76.2 ± 3.16 | having inhibitory activity | –
COc1ccc(CNC(=O)Nc2ccc3ccc(C(=O)O)c(O)c3n2)cc1 [TOF401] | 106 ± 1.08 | -44.6 ± 11.9 | – | –
O=C(CC(=O)c1ccc2ccc(C(=O)O)c(O)c2n1)c1ccccc1 [TOF411] | 104.9 ± 0.6 | 71.04 ± 0.67 | having inhibitory activity | –
C(/C=C/c1ccc2ccccc2n1)=C\c1ccccc1 [XF906] | 104 ± 1.65 | 0.21 ± 20.3 | – | –
